Converted amounts (≈) assume the structure as drawn. Where only a bound is given, the exact number is not on record here.

For orientation: IC50 means the midpoint of a concentration-inhibition curve. The term MIC denotes the lowest concentration that inhibits growth of the organism.

Test [1] has as its system mammary gland breast cancer cell line (MCF-7). The test is described as follows: Antiproliferative activity, MTT assay. It is filed as cell-based, human. To be noted: Homo sapiens, MCF7; MTT, 48 h; read-out: IC50 MCF-7. The protocol:
(§1) 3-[4, 5-Dimethyl-2-thiazolyl)-2, 5-diphenyl-2 H-tetrazolium bromide (MTT) protocol is based on the cleavage of the tetrazolium salt by mitochondrial dehydrogenases in viable cells. Cells were dispensed in a 96 well sterile microplate (5 x 10^4 cells/well), and incubated at 37 °C with series of different concentrations, in DMSO, of each tested compound or Doxorubicin ® (positive control) for 48 h in a serum free medium prior to the MTT assay. After incubation, media were carefully removed, 40 µL of MTT (2.5 mg/mL) were added to each well and then incubated for an additional 4 h. The purple formazan dye crystals were solubilized by the addition of 200 µL of DMSO. The absorbance was measured at 590 nm using a SpectraMax® Paradigm® Multi-Mode microplate reader. The relative cell viability was expressed as the mean percentage of viable cells compared to the untreated control cells.
(§2) All experiments were conducted in triplicate and repeated in three different days. All the values were represented as mean ± SD. IC 50s were determined by probit analysis using SPSS software program (SPSS
On the technique in general: Formazan colour is commonly taken as a measure of viable cells.

Test [2] deals with hepatocellular carcinoma cell line (HepG2). Kind of test: Antiproliferative activity, MTT assay. It is filed as cell-based, human. The note with it: Homo sapiens, HepG2; MTT, 48 h; read-out: IC50 HepG-2. How it is done:
as §1, §2

Test [3] deals with Candida albicans. The test is described as follows: Inhibition zone, agar plate diffusion. It is filed as cell-based. To be noted: Ca, mm ± standard deviation, sample at 0.5 mg/mL, read-out: Inhibition zone (IZ). How it is done: (§3) Antimicrobial activities of the newly formed Schiff bases (6a–d, 7a–d, 8a–d, and 9a–d) and reference drugs were evaluated against three Gram-positive, three Gram-negative, and two fungi strain at Al-Azhar University, Cairo, Egypt. The inhibition zones (IZ, in mm ± standard deviation) and the minimal inhibitory concentration (MIC) (μg/mL) were determined by the conventional paper disk diffusion method.
(§4) In Vitro Antimicrobial Activities
(§5) The antimicrobial activities inhibition zone (IZ, mm±standard deviation) of pyrazole Schiff bases ( 6a-d , 7a-d, 8a-d and 9a-d ) was measurement according to the agar plate diffusion method. Briefly, 100 µl of the […]
(§6) […] of each sample (at 0.5 mg/mL) was added to each well (10 mm diameter holes cut in the agar gel). The plates were incubated for 24 h at 37 °C (for bacteria and yeast) and for 72 h at 27 °C (for filamentous fungi), each test was repeated three times. After incubation, the microorganism's growth was observed. […]
(§7) drugs while Amphotericin B was used as standard antifungal drug. The resulting inhibition zone diameters were measured in millimeters and used as criterion for the antimicrobial activity. Solvent controls (DMSO) were included in every experiment as negative controls. DMSO was used for dissolving […]
(§8) the tested microorganisms. […]
(§9) Bacteria were grown on nutrient agar medium, while fungi and yeast were grown on Sabouraud agar medium. […]

Test [4] has as its system Staphylococcus aureus. Kind of test: Inhibition zone, agar plate diffusion. The note with it: Sa, mm ± standard deviation, sample at 0.5 mg/mL, read-out: Inhibition zone (IZ). It is filed as cell-based. The protocol: as §3, §4, §5, §6, §7, §8, §9
In test [5] the test system is Fusarium oxysporum. The test is described as follows: Inhibition zone, agar plate diffusion. It counts as cell-based. The note with it: Fo, mm ± standard deviation, sample at 0.5 mg/mL, read-out: Inhibition zone (IZ). How it is done: as §3, §4, §5, §6, §7, §8, §9
In test [6] the test system is Salmonella typhi. Kind of test: Inhibition zone, agar plate diffusion. It counts as cell-based. To be noted: Salmonella enterica, St, mm ± standard deviation, sample at 0.5 mg/mL, read-out: Inhibition zone (IZ). How it is done: as §3, §4, §5, §6, §7, §8, §9
Test [7] has as its system Escherichia coli. Kind of test: Inhibition zone, agar plate diffusion. It is filed as cell-based. The note with it: Ec, mm ± standard deviation, sample at 0.5 mg/mL, read-out: Inhibition zone (IZ). How it is done:
as §3, §4, §5, §6, §7, §8

Test [8] concerns Pseudomonas aeruginosa. The test is described as follows: Inhibition zone, agar plate diffusion. It counts as cell-based. The note with it: Pa, mm ± standard deviation, sample at 0.5 mg/mL, read-out: Inhibition zone (IZ). How it is done: as §3, §4, §5, §6, §7, §8
The test system of test [9] is Bacillus subtilis. The test is described as follows: Inhibition zone, agar plate diffusion. It counts as cell-based. To be noted: Bs, mm ± standard deviation, sample at 0.5 mg/mL, read-out: Inhibition zone (IZ). How it is done: as §3, §4, §5, §6, §7, §8
The subject of test [10] is Enterococcus faecalis. The test is described as follows: Inhibition zone, agar plate diffusion. The note with it: Ef, mm ± standard deviation, sample at 0.5 mg/mL, read-out: Inhibition zone (IZ). It is filed as cell-based. The protocol: as §3, §4, §5, §6, §7, §8
The subject of test [11] is Candida albicans. The test is described as follows: MIC/MFC, paper disk diffusion. It counts as cell-based. To be noted: Candida albicans, C. albicans. The protocol: as §3
(§10) In Vitro Antimicrobial Activities […]
(§11) DMSO was used for dissolving […]
(§12) the tested microorganisms.
(§13) The minimum inhibitory concentration (MIC), the minimum bactericidal concentration (MBC, µg/ml) and […]
(§14) and 9b) were determined by the conventional technique termed paper disk diffusion, by applying paper […]
(§15) Bacteria were grown on nutrient agar medium, while fungi and yeast were grown on Sabouraud agar medium. The purified streptomycin was dissolved in […]
(§16) inoculated with test organism. Growth inhibition was examined after 24 hr. from incubation at 37 °C for bacteria and after 72 hr. incubation at 27 °C for fungi and yeast. Each test was repeated three times. MIC was expressed as the lowest concentration inhibiting test organism’s growth. […]
A general note: In agar diffusion tests the substance spreads into inoculated agar from a disc or well.

Test [12] concerns Fusarium oxysporum. The test is described as follows: MIC/MFC, paper disk diffusion. It is filed as cell-based. To be noted: Fusarium oxysporum, F. oxysporum. The protocol:
as §3, §10, §11, §12, §13, §14, §15, §16

In the case of `COc1cccc2c1C(=O)c1c(O)c3c(c(O)c1C2=O)C[C@@](O)(C(=O)CO)C[C@@H]3O[C@H]1C[C@H](N)[C@H](O)[C@H](C)O1` [Doxorubicin, reference compound], the values for the half-maximal inhibitory concentration (IC50) in test [1] and in test [2] were 1940 ± 800 nM and 3920 ± 500 nM, respectively.
On to `C[C@@H]1[C@H](O)[C@@H](C)/C=C/C=C/C=C/C=C/C=C/C=C/C=C/[C@H](O[C@@H]2O[C@H](C)[C@@H](O)[C@H](N)[C@@H]2O)C[C@@H]2O[C@](O)(C[C@@H](O)C[C@@H](O)[C@H](O)CC[C@@H](O)C[C@@H](O)CC(=O)O[C@H]1C)C[C@H](O)[C@H]2C(=O)O` [Amphotericin B, reference compound], for which the zone of inhibition at 500 µg/mL is 22 ± 0.2 mm in test [3]; less than 8 mm in test [4]; 18 ± 0.32 mm in test [5]; less than 8 mm in test [6]; less than 8 mm in test [7]; less than 8 mm in test [8]. Also, the zone of inhibition at 500 µg/mL in test [9] and in [10] was less than 8 mm each time. The MFC amounted to 34.6 µg/mL (≈ 37.5 µM) in [11] (read-out: MFC) and 65.6 µg/mL (≈ 71 µM) in [12] (read-out: MFC). Besides, the MIC in test [11] (read-out: MIC) came to 15.6 µg/mL (≈ 16.9 µM); in test [12] (read-out: MIC), 31.2 µg/mL (≈ 33.8 µM).

The record behind these values is article PMC7321065, “Discovery of New Schiff Bases Tethered Pyrazole Moiety: Design, Synthesis, Biological Evaluation, and Molecular Docking Study as Dual Targeting DHFR/DNA Gyrase Inhibitors with Immunomodulatory Activity” (Molecules, 2020).
